Earlier results, collected in patent publication US12257323B2, “Modified wound dressings” (CONVATEC TECHNOLOGIES INC., priority 2016, dated 2025).

Key:
Settings in all cases: cited from earlier work
MMP-1 = target: T1, MMP-1 (Homo sapiens, UniProt P03956)
T1 sequence (P03956 100-469): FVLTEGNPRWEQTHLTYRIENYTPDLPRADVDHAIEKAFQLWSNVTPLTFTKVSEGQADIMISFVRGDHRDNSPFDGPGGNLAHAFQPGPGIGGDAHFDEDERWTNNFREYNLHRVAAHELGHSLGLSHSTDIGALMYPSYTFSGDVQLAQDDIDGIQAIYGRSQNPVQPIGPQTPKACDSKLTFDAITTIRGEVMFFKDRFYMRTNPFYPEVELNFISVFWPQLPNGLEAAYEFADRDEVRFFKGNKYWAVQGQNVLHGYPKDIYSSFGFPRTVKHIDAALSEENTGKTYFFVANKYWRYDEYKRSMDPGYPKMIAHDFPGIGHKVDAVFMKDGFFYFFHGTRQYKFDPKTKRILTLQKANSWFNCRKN

MMP-2 = target: T2, MMP-2 (Homo sapiens, UniProt P08253)
T2 sequence (P08253 110-660): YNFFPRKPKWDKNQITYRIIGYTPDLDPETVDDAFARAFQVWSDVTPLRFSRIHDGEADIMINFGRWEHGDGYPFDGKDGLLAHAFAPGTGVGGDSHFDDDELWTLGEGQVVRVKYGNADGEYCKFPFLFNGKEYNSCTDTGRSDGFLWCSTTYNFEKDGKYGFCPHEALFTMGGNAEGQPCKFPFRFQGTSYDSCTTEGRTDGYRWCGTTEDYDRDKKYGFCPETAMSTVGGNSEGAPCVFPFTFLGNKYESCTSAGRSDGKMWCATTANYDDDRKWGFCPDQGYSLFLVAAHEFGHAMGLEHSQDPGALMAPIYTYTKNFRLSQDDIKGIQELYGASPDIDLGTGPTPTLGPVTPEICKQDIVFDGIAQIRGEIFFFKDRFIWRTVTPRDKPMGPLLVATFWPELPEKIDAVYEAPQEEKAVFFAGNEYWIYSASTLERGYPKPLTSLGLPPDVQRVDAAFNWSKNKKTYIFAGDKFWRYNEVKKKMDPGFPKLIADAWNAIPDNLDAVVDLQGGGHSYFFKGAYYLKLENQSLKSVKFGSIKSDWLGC

MMP-3 = MMP-3 (Homo sapiens, UniProt P08254)
MMP-3, sequence (P08254 100-477): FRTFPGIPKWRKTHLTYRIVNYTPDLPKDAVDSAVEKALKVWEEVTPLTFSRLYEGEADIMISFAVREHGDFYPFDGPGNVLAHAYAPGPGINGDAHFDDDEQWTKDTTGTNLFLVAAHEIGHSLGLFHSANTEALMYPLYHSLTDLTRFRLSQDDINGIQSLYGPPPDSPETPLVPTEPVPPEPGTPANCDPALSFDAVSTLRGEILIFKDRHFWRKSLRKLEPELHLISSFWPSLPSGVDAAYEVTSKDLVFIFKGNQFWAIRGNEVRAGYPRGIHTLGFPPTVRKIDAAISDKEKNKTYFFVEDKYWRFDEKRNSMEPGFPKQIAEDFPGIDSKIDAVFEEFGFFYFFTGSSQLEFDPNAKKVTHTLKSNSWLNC

MMP-9 = MMP-9 (Homo sapiens, UniProt P14780)
MMP-9, sequence (P14780 94-707): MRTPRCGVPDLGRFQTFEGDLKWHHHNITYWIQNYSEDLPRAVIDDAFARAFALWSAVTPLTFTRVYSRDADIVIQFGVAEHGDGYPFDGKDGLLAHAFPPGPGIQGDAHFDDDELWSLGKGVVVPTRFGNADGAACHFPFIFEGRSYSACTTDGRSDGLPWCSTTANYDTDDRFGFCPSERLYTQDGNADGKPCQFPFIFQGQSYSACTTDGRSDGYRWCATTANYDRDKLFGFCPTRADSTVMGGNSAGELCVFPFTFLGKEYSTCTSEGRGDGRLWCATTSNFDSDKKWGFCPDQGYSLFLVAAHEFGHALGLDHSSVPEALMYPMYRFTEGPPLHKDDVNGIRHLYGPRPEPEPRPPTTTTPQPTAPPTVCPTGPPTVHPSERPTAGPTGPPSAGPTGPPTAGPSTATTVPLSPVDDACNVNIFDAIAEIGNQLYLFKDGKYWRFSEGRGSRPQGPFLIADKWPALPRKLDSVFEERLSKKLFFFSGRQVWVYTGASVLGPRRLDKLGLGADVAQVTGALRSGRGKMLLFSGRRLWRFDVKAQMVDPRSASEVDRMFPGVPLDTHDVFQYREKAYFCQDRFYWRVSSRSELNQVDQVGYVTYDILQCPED

MMP-8 = MMP-8 (Homo sapiens, UniProt P22894)
MMP-8, sequence (P22894 101-467): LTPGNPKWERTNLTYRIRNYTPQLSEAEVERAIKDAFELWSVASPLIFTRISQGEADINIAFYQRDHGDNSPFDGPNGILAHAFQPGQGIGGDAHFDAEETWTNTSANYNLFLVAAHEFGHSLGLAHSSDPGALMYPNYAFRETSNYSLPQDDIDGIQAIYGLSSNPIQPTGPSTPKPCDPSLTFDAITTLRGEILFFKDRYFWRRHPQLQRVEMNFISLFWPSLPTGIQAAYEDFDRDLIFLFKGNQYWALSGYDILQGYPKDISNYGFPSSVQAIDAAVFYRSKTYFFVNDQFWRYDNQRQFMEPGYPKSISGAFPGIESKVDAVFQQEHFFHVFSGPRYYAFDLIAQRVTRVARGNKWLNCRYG

MMP-7 = target: T3, MMP-7 (Homo sapiens, UniProt P09237)
T3 sequence (P09237 95-267): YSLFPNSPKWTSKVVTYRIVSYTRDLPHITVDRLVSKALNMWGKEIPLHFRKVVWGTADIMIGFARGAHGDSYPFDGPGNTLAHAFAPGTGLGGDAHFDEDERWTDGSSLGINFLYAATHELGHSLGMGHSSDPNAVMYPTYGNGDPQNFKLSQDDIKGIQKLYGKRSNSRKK

| Substance | Relative rate MMP-1 (MMP-1) | Relative rate MMP-2 (MMP-2) | Relative rate MMP-3 (MMP-3) | Relative rate MMP-9 (MMP-9) | Relative rate MMP-8 (MMP-8) | Relative rate MMP-7 (MMP-7) |
| --- | --- | --- | --- | --- | --- | --- |
| GIy-Pro-Gln-Gly4Ile-Arg-Gly-Gln | 180 | 180 | 250 | 200 | 170 | 270 |
| Gly-Ala-Gln-Gly#Ile-Ala-Gly-Gln (GAQGIAGQ; printed: Gly-Ala-Gln-Gly; printed: Ile-Ala-Gly-Gln) | 50 | 22 | 62 | 9.4 | 23 |  |
| Gly-Asn-Gln-Gly#Ile-Ala-Gly-Gln (GNQGIAGQ; printed: Gly-Asn-Gln-Gly; printed: Ile-Ala-Gly-Gln) | 17 | 60 | 68 | <5.0 | 45 | 25 |
| Gly-Pro-Asp-Gly#Ile-Ala-Gly-Gln (GPDGIAGQ; printed: Gly-Pro-Asp-Gly; printed: Ile-Ala-Gly-Gln) | 30 | 11 | 89 | 10 | 44 | 7.0 |
| Gly-Pro-Gln-Ala#Ile-Ala-Gly-Gln | 600 | 96 | 300 | 110 | 320 | 530 |
| Gly-Pro-Gln-Gln#Ile-Ala-Gly-Gln | 140 | 25 | 140 | 13 | 150 | 180 |
| Gly-Pro-Gln-Glu#Ile-Ala-Gly-Gln | 28 | 15 | 190 | 29 | 330 | 170 |
| Gly-Pro-Gln-Glv#Met-Ala-Gly-Gln | 110 | 230 | 60 | 170 | 84 | 89 |
| Gly-Pro-Gln-Gly#Arg-Ala-Gly-Gln | <0.5 | <5.0 | <4.9 | <5.0 | <0.5 | <5.0 |
| Gly-Pro-Gln-Gly#Gln-Ala-Gly-Gln | 28 | 34 | 38 | 20 | 10 | <5.0 |
| Gly-Pro-Gln-Gly#Glu-Ala-Gly-Gln | <0.5 | <5.0 | <0.5 | <5.0 | <0.5 | 8.0 |
| Gly-Pro-Gln-Gly#Ile-Ala-Ala-Gln | 220 | 180 | 280 | 140 | 120 | 300 |
| Gly-Pro-Gln-Gly#Ile-Ala-Arg-Gln | 55 | 35 | 490 | 45 | 34 | 220 |
| Gly-Pro-Gln-Gly#Ile-Ala-Gly His | 91 | 150 | 110 | 120 | 145 | 87 |
| Gly-Pro-Gln-Gly#Ile-Ala-Gly-Ala | 86 | 85 | 130 | 110 | 110 | 91 |
| Gly-Pro-Gln-Gly#Ile-Ala-Gly-Gln | 100 | 100 | 100 | 100 | 100 | 100 |
| Gly-Pro-Gln-Gly#Ile-Ala-Gly-Thr | 160 | 59 | 72 | 160 | 145 | 100 |
| Gly-Pro-Gln-Gly#Ile-Ala-Met-Gln | 130 | 40 | 810 | 35 | 34 | 450 |
| Gly-Pro-Gln-Gly#Ile-Ala-Ser-Gln | 91 | 320 | 230 | 130 | 58 | 150 |
| Gly-Pro-Gln-Gly#Ile-Ala-Val-Gln | 100 | 26 | 170 | 49 | 57 | 170 |
| Gly-Pro-Gln-Gly#Ile-Glu-Gly-Gln | 35 | 85 | 58 | 130 | 59 | 86 |
| Gly-Pro-Gln-Gly#Ile-Hyp-Gly-Gln | 7.3 | 32 | 42 | 11 | 1.5 | 8.0 |
| Gly-Pro-Gln-Gly#Ile-Leu-Gly-Gln | 430 | 400 | 280 | 240 | 400 | 250 |
| Gly-Pro-Gln-His#Ile-Ala-Gly-Gln | 190 | 65 | 87 | 44 | 50 |  |
